According to patent publication US12208097B2, “Protein kinase C inhibitors for treatment of uveal melanoma” (NOVARTIS AG, priority 2017, dated 2025):

What was measured:
[1] = test system: MP55 (GNA11mut/BAP1 null) uveal melanoma xenograft; test: Patient derived uveal melanoma xenograft model MP55; format: in vivo, female SCID mice
Text: The anti-tumor activity and tolerability of Compound […]196) and the MDM2 inhibitor (Compound III or its salt thereof) was investigated in vivo using two patient derived uveal melanoma xenograft models, MP46 (GNAQmut) and MP55 (GNA11mut/BAP1 null). MP46 and MP55 uveal melanoma tumors were established in female SCID mice by subcutaneous implantation of 3×3×3 mm tumor fragments into the flank of each mouse. When tumors reached approximately 100 mm^3, mice were randomized according to tumor volume into treatment groups (n=8-10/group). Test agents were administered orally once (QD) or twice daily (BID) at the dose levels indicated. Tumor volumes of treatment groups are plotted from the time the treatment groups were randomized, and dosing commenced.

[2] = test system: MP46 (GNAQmut) uveal melanoma xenograft; test: Patient derived uveal melanoma xenograft model MP46; format: in vivo, female SCID mice; details: 35 days post dosing
Text: The anti-tumor activity and tolerability of Compound I (i.e., LXS196) and the MDM2 inhibitor (Compound III or its salt thereof) was investigated in vivo using two patient derived uveal melanoma xenograft models, MP46 (GNAQmut) and MP55 (GNA11mut/BAP1 null).
MP46 and MP55 uveal melanoma tumors were established in female SCID mice by subcutaneous implantation of 3×3×3 mm tumor fragments into the flank of each mouse. When tumors reached approximately 100 mm^3, mice were randomized according to tumor volume into treatment groups (n=8-10/group). Test agents were administered orally once (QD) or twice daily (BID) at the dose levels indicated. Tumor volumes of treatment groups are plotted from the time the treatment groups were randomized, and dosing commenced.

[3] = Phase I trial of Compound I in patients with metastatic uveal melanoma: safety, DLT, MTD/RDE; format: in vivo
Protocol: (§1) A phase 1, multicenter, open-label, single-arm study of Compound I was performed in patients with metastatic uveal melanoma. A Bayesian logistic regression model, employing the escalation with overdose control principle, was used to guide the dose escalation and to estimate the maximum tolerated dose (MTD)/recommended dose for expansion (RDE). Safety was described using incidence of adverse events (AEs) by relation and severity of the AE graded according to the Common Terminology Criteria for AEs (CTCAE, v4.03). Overall response rate was defined as per Response Evaluation Criteria in Solid Tumors (RECIST, v1.1).
(§2) Patients eligible for inclusion in this study have to meet all of the following key criteria: • Metastatic uveal melanoma (histologically or cytologically confirmed) that is judged to be progressive; patients may be treatment naive or have had any number of lines of prior therapy. • Measurable disease, defined as at least one lesion that can be accurately measured in at least one dimension (longest diameter to be recorded) as >20 mm with conventional techniques or as >10 mm with CT scan. • ECOG performance status ≤1
Patients eligible for this study must not meet any of the following criteria: • Malignant disease other than that being treated in this study • Symptomatic or untreated leptomeningeal or brain metastases or spinal cord compression. Treated brain metastases must have been stable for at least 1 month. • Impaired cardiac function or clinically significant cardiac diseases • Patients with abnormal laboratory values as defined by the protocol • Systemic anti-cancer therapy within 2 weeks of the first dose of study treatment. For cytotoxic agents that have major delayed toxicity, e.g. mitomycin C and nitrosoureas, and for anti-PD-1 or PD-L1 antibodies 4 weeks is indicated as the washout period. For patients receiving a CTLA-4 antagonist or vaccine as anticancer therapy, 6 weeks is indicated as the washout period. Patients must have recovered or stabilized from toxicities related to their previous treatment except for alopecia.
As of the data of Jun. 12, 2017, 55 patients received Compound I (i.e., LXS196) at doses ranging from 100 mg to 1000 mg once daily (QD; 38 patients or “pts”) and 200 mg to 400 mg twice daily (BID; 17 pts). Dose limiting toxicities (DLTs) were reported in 7 of 38 pts (QD schedule) and in 1 of 12 pts (BID schedule). The most common DLT was hypotension, manageable with LXS196 interruption and dose reduction. MTDs were determined at 500 mg QD and 400 mg BID. Due to better overall tolerability the RDE is 300 mg BID. Most common AEs (all grade, in ≥20% of pts) suspected related to LXS196 in pts across both schedules (n=55) were nausea (58.2%), diarrhea (32.7%), vomiting (25.5%), hypotension (25.5%), fatigue (20%) and asthenia (20%). The majority of GI and constitutional AEs were grade (gr) ½. Gr ¾ AEs suspected related to LXS196 were reported in 12 pts (21.8%), the most common being hypotension (10.9%). All other gr ¾ AEs occurred in ≤2 pts (3.6%) each.

[4] = test system: metastatic uveal melanoma; test: Phase I trial: tumor response per RECIST v1.1; format: in vivo, human; details: in 68 evaluable pts
Protocol: as §1, §2
In 68 evaluable pts, 6 had confirmed partial responses (PR) per RECIST v 1.1 (300 mg QD, 500 mg QD, 200 mg BID, 2 at 300 mg BID, 400 mg BID). A further 45 pts had stable disease as best overall response. […]

[5] = Phase I trial: pharmacokinetic (PK) studies; format: in vivo, human
Protocol: as §1
(§3) LXS196 led to reduction of phosphorylated myristoylated, alanine-rich C kinase substrate (pMARCKS) and phosphorylated PKC delta (pPKC delta), evident of target engagement in on-treatment tumor biopsies.

[6] = test system: phosphorylated myristoylated, alanine-rich C kinase substrate (pMARCKS); test: Phase I trial: target engagement in on-treatment tumor biopsies (pMARCKS); format: in vivo, human
Text: as §3

[7] = test system: phosphorylated PKC delta (pPKC delta); test: Phase I trial: target engagement in on-treatment tumor biopsies (pPKC delta); format: in vivo, human
Text: as §3

[8] = test system: UM cell lines; details: with RITA and Topotecan; cited from earlier work

SMILES: COc1cc2c(cc1OC(C)C)[C@H](c1ccc(Cl)cc1)N(c1ccc(N(C)C[C@H]3CC[C@H](N4CCN(C)C(=O)C4)CC3)cc1)C(=O)C2 [Compound III, (S)-1-(4-chloro-phenyl)-7-isopropoxy-6-methoxy-2-(4-{methyl-[4-(4-methyl-3-oxo-piperazin-1-yl)-trans-cyclohexylmethyl]-amino}-phenyl)-1,4-dihydro-2H-isoquinolin-3-one]
- T/C ([1]; MP55, 100 mg/kg QD oral): 20%
- treatment/control (T/C) ([2]; MP46, 100 mg/kg QD oral): 39%

SMILES: CC1(N)CCN(c2cccnc2NC(=O)c2nc(-c3ncccc3C(F)(F)F)cnc2N)CC1 [LXS196, 3-amino-N-(3-(4-amino-4-methylpiperidin-1-yl)pyridin-2-yl)-6-(3-(trifluoromethyl)pyridin-2-yl)pyrazine-2-carboxamide]
- AE asthenia, all grade, suspected related ([3]; human, in vivo): 20%
- AE diarrhea, all grade, suspected related ([3]; human, in vivo): 32.7%
- AE fatigue, all grade, suspected related ([3]; human, in vivo): 20%
- AE hypotension, all grade, suspected related ([3]; human, in vivo): 25.5%
- AE nausea, all grade, suspected related ([3]; human, in vivo): 58.2%
- AE vomiting, all grade, suspected related ([3]; human, in vivo): 25.5%
- All other gr ¾ AEs, each, number of patients ([3]; human, in vivo): ≤ 2 pts
- All other gr ¾ AEs, each, share of patients ([3]; human, in vivo): ≤ 3.6%
- Gr ¾ AEs suspected related, number of patients ([3]; human, in vivo): 12 pts
- Gr ¾ AEs suspected related, share of patients ([3]; human, in vivo): 21.8%
- Gr ¾ hypotension (most common gr ¾ AE) ([3]; human, in vivo): 10.9%
- Grade of the majority of GI and constitutional AEs ([3]; human, in vivo): grade (gr) ½
- Most common DLT ([3]; human, in vivo): hypotension
- RDE (recommended dose for expansion) ([3]; human, in vivo): 300 mg BID
- MTD ([3]; once daily schedule): 500 mg QD
- MTD ([3]; twice daily schedule): 400 mg BID
- T/C ([1]; MP55, 120 mg/kg BID oral): 20%
- Stable disease as best overall response [4]: 45 pts
- Confirmed partial responses (PR) per RECIST v 1.1 ([4]; 300 mg QD, 500 mg QD, 200 mg BID, 2 at 300 mg BID, 400 mg BID): 6 pts
- Exposure ([5]; doses above 300 mg QD and 200 mg BID): in the efficacious range from preclinical projections
- half-life ([5]; human, in vivo, oral, consistent across different doses, read-out: terminal T½ (converted)): ~10 h
- Tmax ([5]; human, in vivo, post dose, patients, oral): ~1 h
- Effect on pMARCKS [6]: reduction
- Effect on pPKC delta [7]: reduction
- regression ([2]; MP46, 120 mg/kg BID oral): 63%

SMILES: COc1ccc(C2=N[C@@H](c3ccc(Cl)cc3)[C@@H](c3ccc(Cl)cc3)N2C(=O)N2CCNC(=O)C2)c(OC(C)C)c1 [Nutlin-3]
- Combination effect on growth inhibition [8]: synergistically
